From PMC10294756 (Journal of Enzyme Inhibition and Medicinal Chemistry, 2023)
Like-named read-outs stand apart in the source and are kept apart here.

Assays:
[1] = system: HCC cell lines (HepG2, HuH7, and SMMC-7721); experiment: MTT assay, results stated over the three HCC cell lines; format: cell-based; details: Homo sapiens, 48 h, read-out: IC50 against HCC cells (span over cell lines)
SMMC-7721 = experiment: MTT assay, SMMC-7721 cells; format: cell-based, human; details: read-out: IC50 SMMC-7721
HuH7 = experiment: MTT assay, HuH7 cells; format: cell-based, human; details: read-out: IC50 HuH7
HepG2 = experiment: MTT assay, HepG2 cells; format: cell-based, human; details: for IC50: read-out: IC50 HepG2
LO2 = experiment: MTT assay, normal hepatocyte LO2; format: cell-based, human
[2] = Homo sapiens, L02, 48 h, read-out: IC50 LO2, normal liver cell line, MTT, 48 h
[3] = read-out: IC50 LO2, normal liver cell line, MTT, 48 h
[4] = MTT, 48 h, mean ± SD of three experiments

IC50 [1]	IC50 (SMMC-7721; Homo sapiens, SMMC-7721, 48 h)	IC50 (HuH7; Homo sapiens, Huh-7, 48 h)	IC50 (HepG2; Homo sapiens, HepG2, 48 h)	SMILES	IC50 (LO2; [2])	IC50 (LO2; [3])	IC50 (SMMC-7721; [4])	IC50 (HuH7; [4])	IC50 (HepG2; [4])	effect on the inhibition of HepG2 cell proliferation by TMHA37 (HepG2; 20 μM CDIM8, 5 μM TMHA37, 48 h, MTT)
30.8 to 52.8 µM	52.8 ± 1.56 µM	31.7 ± 3.6 µM	30.8 ± 2.52 µM	Cc1cc(Nc2ccc(C(=O)N/N=C/c3ccsc3)cc2)c2cccc(O)c2n1 [7A, (E)-4-((8-hydroxy-2-methylquinolin-4-yl)amino)-N'-(thiophen-3-ylmethylene)benzohydrazide]	–	–	–	–	–	–
< 30 µM	26.1 ± 1 µM	18 ± 1.26 µM	16.2 ± 1.53 µM	Cc1cc(Nc2ccc(C(=O)N/N=C/c3sccc3Br)cc2)c2cccc(O)c2n1 [7B, (E)-N'-((3-bromothiophen-2-yl)methylene)-4-((8-hydroxy-2-methylquinolin-4-yl)amino)benzohydrazide]	> 90 µM	–	–	–	–	–
< 30 µM	16 ± 0.54 µM	21.2 ± 2.28 µM	16.4 ± 0.7 µM	Cc1cc(Nc2ccc(C(=O)N/N=C/c3cc(Br)cs3)cc2)c2cccc(O)c2n1 [7C, (E)-N'-((4-bromothiophen-2-yl)methylene)-4-((8-hydroxy-2-methylquinolin-4-yl)amino)benzohydrazide]	21 ± 1.18 µM	–	–	–	–	–
–	22.94 ± 0.03 µM	25.6 ± 1.81 µM	17.7 ± 0.3 µM	CSc1ccc(/C=N/NC(=O)c2ccc(Nc3cc(C)nc4c(O)cccc34)cc2)cc1 [7E, (E)-4-((8-hydroxy-2-methylquinolin-4-yl)amino)-N'-(4-(methylthio)benzylidene)benzohydrazide]	> 90 µM	–	–	–	–	–
–	17.9 ± 1.03 µM	22.3 ± 1.88 µM	13.6 ± 2.14 µM	Cc1cc(Nc2ccc(C(=O)N/N=C/c3ccccc3Cl)cc2)c2cccc(O)c2n1 [7F, (E)-N'-(2-chlorobenzylidene)-4-((8-hydroxy-2-methylquinolin-4-yl)amino)benzohydrazide]	15 ± 2.16 µM	–	–	–	–	–
–	20.6 ± 2.56 µM	6.88 ± 2.04 µM	15.5 ± 1.45 µM	Cc1cc(Nc2ccc(C(=O)N/N=C/c3cccc(C(F)(F)F)c3)cc2)c2cccc(O)c2n1 [7G, (E)-4-((8-hydroxy-2-methylquinolin-4-yl)amino)-N'-(3-(trifluoromethyl)benzylidene)benzohydrazide]	19.9 ± 2.01 µM	–	–	–	–	–
–	27.68 ± 0.25 µM	23.3 ± 0.33 µM	18.1 ± 0.98 µM	Cc1cc(Nc2ccc(C(=O)N/N=C/c3ccc(C(F)(F)F)cc3)cc2)c2cccc(O)c2n1 [7H, (E)-4-((8-hydroxy-2-methylquinolin-4-yl)amino)-N'-(4-(trifluoromethyl)benzylidene)benzohydrazide]	> 90 µM	–	–	–	–	–
–	33.9 ± 3.58 µM	12.8 ± 0.36 µM	28.3 ± 1.17 µM	C#Cc1ccc(/C=N/NC(=O)c2ccc(Nc3cc(C)nc4c(O)cccc34)cc2)cc1 [7I, (E)-N'-(4-ethynylbenzylidene)-4-((8-hydroxy-2-methylquinolin-4-yl)amino)benzohydrazide]	–	–	–	–	–	–
–	37.2 ± 2.23 µM	26 ± 0.54 µM	27.5 ± 2.12 µM	COc1cc(/C=N/NC(=O)c2ccc(Nc3cc(C)nc4c(O)cccc34)cc2)cc(OC)c1 [7J, (E)-N’-(3,5-dimethoxybenzylidene)-4-((8-hydroxy-2-methylquinolin-4-yl)amino)benzohydrazide]	–	–	–	–	–	–
–	28.2 ± 2.06 µM	34.6 ± 2.97 µM	20.1 ± 1.18 µM	COc1ccc(F)c(/C=N/NC(=O)c2ccc(Nc3cc(C)nc4c(O)cccc34)cc2)c1 [7K, (E)-N'-(2-fluoro-5-methoxybenzylidene)-4-((8-hydroxy-2-methylquinolin-4-yl)amino)benzohydrazide]	–	–	–	–	–	–
–	25.4 ± 1.63 µM	15.9 ± 2.8 µM	21 ± 1.51 µM	Cc1cc(Nc2ccc(C(=O)N/N=C/c3cccc(F)c3F)cc2)c2cccc(O)c2n1 [7L, (E)-N'-(2,3-difluorobenzylidene)-4-((8-hydroxy-2-methylquinolin-4-yl)amino)benzohydrazide]	25 ± 3.16 µM	–	–	–	–	–
15.8 to 27.6 µM	18.2 ± 1.94 µM	23.8 ± 1.82 µM	15.8 ± 3.68 µM	Cc1cc(Nc2ccc(C(=O)N/N=C/c3ccc(Br)c(F)c3)cc2)c2cccc(O)c2n1 [7M, (E)-N'-(4-bromo-3-fluorobenzylidene)-4-((8-hydroxy-2-methylquinolin-4-yl)amino)benzohydrazide]	> 90 µM	–	–	–	–	–
15.8 to 27.6 µM	21.1 ± 1.01 µM	15.4 ± 2.09 µM	27.6 ± 0.81 µM	Cc1cc(Nc2ccc(C(=O)N/N=C/c3ccc(F)c(Br)c3)cc2)c2cccc(O)c2n1 [7N, (E)-N'-(3-bromo-4-fluorobenzylidene)-4-((8-hydroxy-2-methylquinolin-4-yl)amino)benzohydrazide]	> 90 µM	–	–	–	–	–
–	16.9 ± 1.97 µM	13.7 ± 0.61 µM	15.7 ± 1.31 µM	Cc1cc(Nc2ccc(C(=O)N/N=C/c3ccc(F)cc3Br)cc2)c2cccc(O)c2n1 [7O, (E)-N'-(2-bromo-4-fluorobenzylidene)-4-((8-hydroxy-2-methylquinolin-4-yl)amino)benzohydrazide]	69.2 ± 4.58 µM	–	–	–	–	–
7.78 to 19.3 µM	8.82 ± 0.41 µM	19.3 ± 1.49 µM	7.78 ± 1.33 µM	Cc1cc(Nc2ccc(C(=O)N/N=C/c3cc(C(F)(F)F)ccc3F)cc2)c2cccc(O)c2n1 [7P, (E)-N'-(2-fluoro-5-(trifluoromethyl)benzylidene)-4-((8-hydroxy-2-methylquinolin-4-yl)amino)benzohydrazide]	18 ± 1.55 µM	–	–	–	–	–
–	21.6 ± 1.13 µM	29.2 ± 3.24 µM	12.7 ± 1.61 µM	Cc1cc(Nc2ccc(C(=O)N/N=C/c3ccc(F)c(C(F)(F)F)c3)cc2)c2cccc(O)c2n1 [7Q, (E)-N'-(4-fluoro-3-(trifluoromethyl)benzylidene)-4-((8-hydroxy-2-methylquinolin-4-yl)amino)benzohydrazide]	4.82 ± 0.67 µM	–	–	–	–	–
30 to 45.8 µM	45.8 ± 0.64 µM	32.2 ± 4.3 µM	30 ± 0.92 µM	Cc1cc(Nc2ccc(C(=O)N/N=C/c3cccc(Br)n3)cc2)c2cccc(O)c2n1 [7R, (E)-N'-((6-bromopyridin-2-yl)methylene)-4-((8-hydroxy-2-methylquinolin-4-yl)amino)benzohydrazide]	–	–	–	–	–	–
15 to 23.9 µM	22.3 ± 0.98 µM	16.2 ± 0.66 µM	15.6 ± 1.65 µM	Cc1cc(Nc2ccc(C(=O)N/N=C/c3ccc4ccccc4c3)cc2)c2cccc(O)c2n1 [7S, (E)-4-((8-hydroxy-2-methylquinolin-4-yl)amino)-N'-(naphthalen-2-ylmethylene)benzohydrazide]	> 60 µM	66.3 ± 8.68 µM	–	–	–	–
15 to 23.9 µM	23.9 ± 2.16 µM	20.9 ± 2.46 µM	15 ± 4.75 µM	COc1ccc(/C=N/NC(=O)c2ccc(Nc3cc(C)nc4c(O)cccc34)cc2)c2ccccc12 [7T, (E)-4-((8-hydroxy-2-methylquinolin-4-yl)amino)-N'-((4-methoxynaphthalen-1-yl)methylene)benzohydrazide]	> 60 µM	60.7 ± 0.98 µM	–	–	–	–
–	19.9 ± 0.94 µM	30.9 ± 3.39 µM	17.6 ± 1.09 µM	Cc1cc(Nc2ccc(C(=O)N/N=C/c3cc4ccccc4nc3Cl)cc2)c2cccc(O)c2n1 [7U, (E)-N'-((2-chloroquinolin-3-yl)methylene)-4-((8-hydroxy-2-methylquinolin-4-yl)amino)benzohydrazide]	18 ± 1.29 µM	–	–	–	–	–
–	21.7 ± 1.96 µM	20.4 ± 2.75 µM	13.7 ± 2.85 µM	Cc1cc(Nc2ccc(C(=O)N/N=C/c3csc4ccccc34)cc2)c2cccc(O)c2n1 [7V, (E)-N'-(benzo[b]thiophen-3-ylmethylene)-4-((8-hydroxy-2-methylquinolin-4-yl)amino)benzohydrazide]	3.06 ± 0.11 µM	–	–	–	–	–
–	–	–	–	N.N.[Cl][Pt][Cl] [CDDP, Cisplatinum, reference compound]	–	4.23 ± 0.52 µM	1.58 ± 0.08 µM	3.69 ± 0.55 µM	2.21 ± 0.35 µM	–
–	–	–	–	Oc1ccc(C(c2c[nH]c3ccccc23)c2c[nH]c3ccccc23)cc1 [CDIM8, reference compound]	–	–	–	–	–	significantly reversed the inhibitory effect of TMHA37 on HepG2 cell proliferation

SMILES	IC50 [1]	IC50 (SMMC-7721; Homo sapiens, SMMC-7721, 48 h)	IC50 (HuH7; Homo sapiens, Huh-7, 48 h)	IC50 (HepG2; Homo sapiens, HepG2, 48 h)	IC50 (LO2; [2])	IC50 (LO2; [3])	IC50 (SMMC-7721; [4])	IC50 (HuH7; [4])	IC50 (HepG2; [4])	effect on the inhibition of HepG2 cell proliferation by TMHA37 (HepG2; 20 μM CDIM8, 5 μM TMHA37, 48 h, MTT)
CC1=C(O)C(=O)C=C2C1=CC=C1[C@@]2(C)CC[C@@]2(C)[C@@H]3C[C@](C)(C(=O)O)CC[C@]3(C)CC[C@]12C [Celastrol, reference compound]	–	16 ± 3.28 µM	34.9 ± 2.21 µM	18.6 ± 1.01 µM	–	–	–	–	–	–
